From US5665745A, “Heterocyclic compounds and their preparation and use” (Eli Lilly and Company, priority 1995, dated 1997)
pIC50: −log10 of the molar value. Where two headings read alike, the source gives them in different places.

Assays:
[1] = molecular target: T1, muscarinic receptors (M1 -site, pirenzepine sensitive site) (Rattus norvegicus, UniProt P08482); assay: inhibition of ^3 HPRZ (pirenzepine, [N-methyl-^3 H]) binding to rat cerebral cortex membranes; design: species or system rat (male Wistar
T1 construct: from tissue; host or cells: cerebral cortex membranes of male Wistar rats
T1 sequence (P08482 1-460): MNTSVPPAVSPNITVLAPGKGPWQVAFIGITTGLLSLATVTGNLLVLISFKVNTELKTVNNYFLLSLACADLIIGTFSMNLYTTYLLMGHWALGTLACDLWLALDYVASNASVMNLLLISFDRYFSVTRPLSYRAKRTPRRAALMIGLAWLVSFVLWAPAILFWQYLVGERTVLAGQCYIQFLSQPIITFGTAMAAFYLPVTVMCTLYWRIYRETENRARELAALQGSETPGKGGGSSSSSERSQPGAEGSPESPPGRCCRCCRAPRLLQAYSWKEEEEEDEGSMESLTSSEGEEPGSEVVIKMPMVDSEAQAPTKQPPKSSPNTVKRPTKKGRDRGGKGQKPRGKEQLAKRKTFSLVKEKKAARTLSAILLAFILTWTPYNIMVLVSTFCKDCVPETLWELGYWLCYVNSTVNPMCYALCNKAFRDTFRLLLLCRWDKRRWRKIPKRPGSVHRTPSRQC
Description: Furthermore the pharmacological properties of the compounds of the invention can also be illustrated by determining their capability to inhibit ^3 HPRZ (pirenzepine, [N-methyl-^3 H]) binding to rat cerebral cortex membranes.
Pirenzepine binds selectively to subtype of muscarinic receptors. Historically the type is named the M1 -site, whereas pirenzepine sensitive site would be more appropriate.
(§1) All preparations are performed at 0°-4° C. unless otherwise indicated. Fresh cortex (0.1-19) from male Wistar rats (150-200 g) is homogenized for 5-10 s in 10 mL 20 mM Hepes pH: 7.4, with an Ultra-Turrax homogenizer. The homogenizer is rinsed with 2×10 mL of buffer and the combined suspension centrifuged for 15 min. at 40,000×g. The pellet is washed three times with buffer. In each step the pellet is homogenized as before in 3×10 mL of buffer and centrifuged for 10 min. at 40,000×g.
The final pellet is homogenized in 20 mM Hepes pH: 7.4 (100 mL per g of original tissue) and used for binding assay. Aliquots of 0.5 mL is added 20 μl of test solution and 25 μL of ^3 HPRZ (1.0 nM, final conc.), mixed and incubated for 60 min. at 20° C. Non-specific binding is determined in triplicate using atropine (1 ,μg/mL, final conc.) as the test substance. After incubation samples are added 5 mL of ice-cold buffer and poured directly onto Whatman GF/C glass fiber filters under suction and immediately washed 2 times with 5 mL of ice-cold buffer. The amount of radioactivity on the filters are determined by conventional liquid scintillation counting. Specific binding is total binding minus non-specific binding.
Test substances are dissolved in 10 mL water, at a concentration of 0.22 mg/mL.
(§2) The test value will be given as IC50 (the concentration (nM) of the test substance which inhibits the specific binding of ^3 HPRZ by 50%). IC50 =(applied test substance concentration) x(Cx /Co -Cx)nM where Co is specific binding in control assays and Cx is the specific binding in the test assay. (The calculations assume normal mass-action kinetics).

[2] = molecular target: muscarinic acetylcholine receptors; assay: inhibition of specific binding of ^3 H-Oxotremorine-M (^3 H-Oxo); design: species or system rat (male Wistar; settings: ^3 H-Oxotremorine 1.0 nM, rat cortex, 30 min. at 25° C.
Source text: The pharmacological properties of the compounds of the invention can be illustrated by determining their capability to inhibit the specific binding of ^3 H-Oxotremorine-M (^3 H-Oxo). Birdsdall N. J. M., Hulme E. C., and Burgen A. S. V. (1980). "The Character of Muscarinic Receptors in Different Regions of the Rat Brain" Proc. Roy. Soc. London (Series B) 207,1.
^3 H-Oxo labels muscarinic receptor in the CNS (with a preference for agonist domains of the receptors). Three different sites are labeled by ^3 H-Oxo. […] Using the present experimental conditions only the high and medium affinity sites are determined.
The inhibitory effects of compounds on ^3 H-oxo binding reflects the affinity for muscarinic acetylcholine receptors.
as §1, with “cortex (0.1-1 g)” for “cortex (0.1-19)”, “rats (150-250” for “rats (150-200”, “5-10 seconds” for “5-10 s”, “[…]” for “20 mM”, “with 10” for “with 2×10”, “in 2×10” for “in 3×10”
The final pellet is homogenized in 20 mM Hepes pH: 7.4 (100 mL per g of original tissue) and used for binding assay. Aliquots of 0.5 mL is added 25 μL of test solution and 25 μL of ^3 H-Oxotremorine (1.0 nM, final concentration) mixed and incubated for 30 min. at 25° C. Non-specific binding is determined in triplicate using arecoline ([…], final concentration) as the test substance. After incubation samples are added 5 mL of ice-cold buffer and poured directly onto Whatman GF/C glass fiber filters under suction and immediately washed 2 times with 5 mL of ice-cold buffer. The amount of radioactivity on the filters are determined by conventional liquid scintillation counting. Specific binding is total binding minus non specific binding.
as §2, with “Test substances are dissolved in 10 mL water (if necessary heated on a steam-bath for less than 5 min.) at a concentration of 2.2 mg/mL. […] The test” for “The test”, “of ^3 H-oxo by 50%).” for “of ^3 HPRZ by 50%).”

[3] = ^3 HPRZ 1.0 nM, rat cortex, 60 min. at 20° C., read-out: ^3 HPRZ IC50 (head from b208 on: Pir IC-50)

pIC50 [1, 3]	pIC50 [2]	SMILES	pIC50 [1]
6.43	6.91	CCCCOc1nsnc1OC1CCNC1 (racemic) [Compound 27, (±)-3-Butyloxy-4-(3-pyrrolidinyloxy)-1,2,5-thiadiazole]	
8.52	8.89	CCC#CCCOc1nsnc1O[C@@H]1CN2CCC[C@H]1C2 (relative stereo) [Compound 176, (±)-endo-3-(3-Hexynyloxy)-4-(1-azabicyclo[3.2.1]octyl-6-oxy)-1,2,5-thiadiazole]	
6.66	6.69	CCCCOc1nsnc1SCCN(C)C [Compound 36, 3-Butyloxy-4-(2-(dimethylamino)ethylthio)-1,2,5-thiadiazole]	
7.78	8.28	Fc1ccc(OCCSc2nsnc2OC2CC3CCC2NC3)cc1 (mixture of isomers) [Compound 164, (±)-exo-3-(2-[Fluorophenoxy]ethylthio)-4-(2-azabicyclo[2.2.2]octyl-6-oxy)-1,2,5-thiadiazole]	
6.45	7.04	CCCCOc1nsnc1OC1CNC1 [Compound 50, 3-Butyloxy-4-(3-azetidinyloxy)-1,2,5-thiadiazole]	
8.55	9.23	C#CCCOc1nsnc1O[C@@H]1CN2CCC[C@H]1C2 (relative stereo) [Compound 186, (±)-endo-3-(3-Butynyloxy)-4-(1-azabicyclo[3.2.1]octyl-6-oxy)-1,2,5-thiadiazole]	
8.02	8.85	c1ccc(OCCOc2nsnc2O[C@@H]2CN3CCC[C@H]2C3)cc1 (relative stereo) [Compound 191, (±)-endo-3-(2-Phenoxyethoxy)-4-(1-azabicyclo[3.2.1]octyl-6-oxy)-1,2,5-thiadiazole]	
8.20	7.85	FC(F)(F)CCCOc1nsnc1OC1CC2CCC1NC2 (mixture of isomers) [Compound 160, (±)-exo-3-(4,4,4-Trifluorobutyloxy)-4-(2-azabicyclo[2.2.2]octyl-6-oxy)-1,2,5-thiadiazole]	
8.72	8.74	N#Cc1ccc(CSc2nsnc2O[C@H]2CN3CCC[C@@H]2C3)cc1 (relative stereo) [Compound 49, (±)-endo-3-(4-Cyanobenzylthio)-4-(1-azabicyclo[3.2.1]octyl-6-oxy)-1,2,5-thiadiazole]	
8.85	9.00	c1csc(COc2nsnc2O[C@@H]2CN3CCC[C@H]2C3)c1 (relative stereo) [Compound 173, (±)-endo-3-(2-Thienylmethoxy)-4-(1-azabicyclo[3.2.1]octyl-6-oxy)-1,2,5-thiadiazole]	
8.94	8.96	CCCCOc1nsnc1O[C@H]1CN2CCC[C@@H]1C2 (relative stereo) [Compound 71, 3-(1-Butyloxy)-4-[endo-(+,-)-6-(1-azabicyclo[3.2.1]octyloxy)]-1,2,5-thiadiazole]	
6.84	6.64	O=C1CCCn2cccc21 [Compound 139, 1-azabicyclo[4.3.0]nona-6,8-diene-5-one]	
8.66	8.92	C=CCCOc1nsnc1O[C@@H]1CN2CCC[C@H]1C2 (relative stereo) [Compound 184, (±)-endo-3-(3-Butenyloxy)-4-(1-azabicyclo[3.2.1]octyl-6-oxy)-1,2,5-thiadiazole]	
8.05	7.92	CCCCSc1nsnc1OCCN(C)C [Compound 144, 3-Butylthio-4-(2-dimethylaminoethoxy)-1,2,5-thiadiazole]	

SMILES	pIC50 [1, 3]	pIC50 [2]	pIC50 [1]
CCCCOc1nsnc1O[C@@H]1C[C@H]2CC(=O)C[C@@H]1N2C (relative stereo) [Compound 46, (±)-exo-3-Butyloxy-4-(6-(N-methyl-8-azabicyclo[3.2.1]octan-3-onoxy))-1,2,5-thiadiazole]	< 6.00	< 6.00	
Clc1ccc(OCCOc2nsnc2OC2CN3CCC2CC3)cc1 (racemic) [Compound 118, (±)-3-(2-[4-Chlorophenoxy]ethoxy)-4-(1-azabicyclo[2.2.2]octyl-3-oxy)-1,2,5-thiadiazole]		8.14	7.15
CCCSc1nsnc1OC1CN2CCC1CC2 (racemic) [Compound 13, (±)-3-Propylthio-4-(1-azabicyclo[2.2.2]octyl-3-oxy)-1,2,5-thiadiazole]		8.85	8.43
C1CC(COc2nsnc2OC2CN3CCC2CC3)C1 (racemic) [Compound 124, (±)-3-(Cyclobutylmethoxy)-4-(1-azabicyclo[2.2.2]octyl-3-oxy)-1,2,5-thiadiazole]		8.24	7.27
c1ccc2c(c1)Sc1ccccc1N2CCCSc1nsnc1OC1CN2CCC1CC2 (racemic) [Compound 151, (±)-3-(3-[N-phenothiazinyl]propylthio)-4-(1-azabicyclo[2.2.2]octyl-3-oxy)-1,2,5-thiadiazole]	5.57	5.68	
C=CCCOc1nsnc1OC1CN2CCC1CC2 (racemic) [Compound 108, (±)-3-(3-Butenyloxy)-4-(1-azabicyclo[2.2.2]octyl-3-oxy)-1,2,5-thiadiazole]		8.04	7.25
O=C(CCSc1nsnc1OC1CN2CCC1CC2)c1ccc(F)cc1 (racemic) [Compound 150, (±)-3-(3-[4-Fluorophenyl]propan-3-onethio)-4-(1-azabicyclo[2,2.2]octyl-3-oxy)-1,2,5-thiadiazole]		7.77	7.44
CCCCCSc1nsnc1OC1CN2CCC1CC2 (racemic) [Compound 15, (±)-3-Pentylthio-4-(1-azabicyclo[2.2.2]octyl-3-oxy)-1,2,5-thiadiazole]		8.80	8.64
FC(F)(F)C(F)(F)CSc1nsnc1OC1CN2CCC1CC2 (racemic) [Compound 20, (±)-3-(2,2,3,3,3-Pentafluoropropylthio)-4-(1-azabicyclo-[2.2.2]octyl-3-oxy)-1,2,5-thiadiazole]		8.59	8.40
Fc1ccc(CSc2nsnc2OC2CN3CCC2CC3)cc1 (racemic) [Compound 42, (±)-3-(4-Fluorobenzylthio)-4-(1-azabicyclo[2.2.2]octyl-3-oxy)-1,2,5-thiadiazole]		7.85	8.03
CCCCOc1nsnc1OC1CC2CCC(C1)N2C (centres unmarked) [Compound 45]		7.54	8.34
